In patent US20260028338A1, “HETEROBIFUNCTIONAL COMPOUNDS AND METHODS OF TREATING DISEASE” (Halda Therapeutics OpCo, Inc., priority 2023, published 2026):

Tests used:
[1] = tested on: Su-DHL-4 cell line; test: Cellular growth inhibition assay, Su-DHL-4 cells (CellTiter-Glo); assay type: cell-based; settings: Homo sapiens; Su-DHL-4 cell line (DLBCL), 72 hours, CellTiter-Glo 2.0
Experimental: (§1) Exemplary compounds were tested for ability to inhibit the proliferation of Su-DHL-4 and Farage cells. Su-DHL-4 and Farage cells are commercially available diffuse large B cell lymphoma cell lines (DLBCL).
(§2) Su-DHL-4 and Farage cells were purchased from American Type Cell Culture (ATCC Cat #CRL-2957/CRL-2630) and then seeded on poly-D-lysine coated, black clear-bottom 384-well plates at 3000/well in 25 μL Roswell Park Memorial Institute media (RPMI-1640) supplemented with 10% w/w Fetal bovine serum (FBS) and 1% w/w Pen-Strep. Pen-Strep is a commercially available mixture of penicillin G and streptomycin, which is used in mammalian cell culture media to prevent bacterial contamination. Roswell Park Memorial Institute media (RPMI-1640) supplemented with 10% w/w fetal bovine serum (FBS), and 1% w/w Pen-Strep is herein referred to as Treatment Medium. Following seeding of cells in the plates, the plates were spun at 300×g for 30 seconds, then equilibrated to room temperature for 30 minutes, and then deposited in a humidified tissue culture incubator maintained at 37° C. with 5% CO2.
(§3) At 24 hours after seeding of the cells, dilutions of test compound were prepared in DMSO and dissolved in Treatment Medium, to achieve a final DMSO concentration of 0.5% w/w, thereby providing the Test Compound Solution. A 25 μL aliquot of the Test Compound Solution was added to cells in the well plates. An equal volume of a solution containing DMSO and Treatment Medium was used as a negative control. Following treatment of cells with Test Compound Solution or said equal volume of a solution containing DMSO and Treatment Medium, the plates were spun at 300×g for 30 seconds, and then left in an incubator for 72 hours.
(§4) At the end of the treatment duration, cell viability was quantified with CellTiter-Glo 2.0 reagent (Promega Cat #G9243). For this purpose, plates were equilibrated to room temperature for 30 minutes, and then 25 μL of CellTiter-Glo 2.0 reagent was added to cells in the plate wells. Plates were then agitated on a shaker for two minutes at 500 rpm and subsequently incubated at room temperature for 10 minutes. Following incubation, the plates were spun at 3000×g for 30 seconds, then sealed with an optical adhesive cover, and luminescence readings were measured with an EnVision Plate Reader (Perkin Elmer).
(§5) Data was normalized using zero luminescence for baseline. A four-parameter non-linear regression curve fit was applied to dose-response data in GraphPad Prism data analysis software to determine the half-maximal growth inhibitory concentration (GI50) for each test compound.

[2] = tested on: T-Rex 293 cell line SC cells lacking increased expression of BCL6 protein; test: Cellular growth inhibition assay, T-Rex 293 SC cells without doxycycline (CellTiter-Glo); assay type: cell-based; settings: T-Rex 293 SC cells not exposed to doxycycline (no increased BCL6 expression), 72 hours, CellTiter-Glo 2.0
Experimental: (§6) Exemplary compounds were tested for ability to inhibit the proliferation of the following types of cells: (i) a T-Rex 293 cell line having increased expression of BCL6 protein due to exposure of doxycycline and (ii) a T-Rex 293 cell line lacking increased expression of BCL6 protein.
(§7) The following types of cells were prepared for this experiment: (i) a T-Rex 293 cell line having increased expression of BCL6 protein due to exposure to doxycycline and (ii) a T-Rex 293 cell line lacking increased expression of BCL6 protein. Ability of the test compounds to inhibit proliferation of the foregoing cell types was evaluated according to the procedures set forth below.
(§8) The doxycycline-inducible BCL6 protein expressing cell line was established using the following protocol: T-Rex 293 cells were purchased from Invitrogen (Cat #R71007) and transfected using Lipofectamine 2000 with the wild-type BCL6 protein sequence cloned into the pcDNA4/TO vector. Transfected cells were selected using 400 μg/mL Zeocin (Invitrogen Cat #R25001). Following selection, single clones were raised and maintained in Dulbecco's Modified Eagle Medium (DMEM) supplemented with 10% w/w Tetracycline-free fetal bovine serum (FBS) and 250 μg/mL Zeocin. Clones were analyzed for expression of BCL6 protein in the presence and absence of 10 ng/mL doxycycline (Sigma Cat #D9891), and a single doxycycline-inducible clone (hereinafter “SC”) was selected for use in downstream assays.
(§9) The SC cells were seeded on poly-D-lysine coated, black clear-bottom 384-well plates at 2500/well, in 25 μL Dulbecco's Modified Eagle Medium (DMEM) supplemented with 10% w/w Tetracycline-free fetal bovine serum (FBS) and 1% w/w pen-strep, with or without 10 ng/mL doxycycline. Pen-Strep is a commercially available mixture of penicillin G and streptomycin, which is used in mammalian cell culture media to prevent bacterial contamination. Dulbecco's Modified Eagle Medium (DMEM) supplemented with 10% w/w Tetracycline-free fetal bovine serum (FBS) and 1% w/w pen-strep, with or without 10 ng/mL doxycycline is herein referred to as Treatment Medium. Following seeding of cells in the plates, the plates were spun at 300×g for 30 seconds, then equilibrated to room temperature for 30 minutes, and then deposited in a humidified tissue culture incubator maintained at 37° C. with 5% CO2.
as §3, §4, §5

[3] = molecular target: T1, His-tagged BRD4 BD1 (46-168) (Homo sapiens, UniProt O60885); test: AlphaLISA competition assay, BRD4 BD1; assay type: binding; settings: BRD4-BD1, AlphaLISA competition with biotinylated histone H4K5/8/12/16(Ac) peptide, 10 nM
T1 construct: His-tagged BRD4 BD1 (46-168) and biotinylated histone H4K5/8/12/16(Ac) peptide
Experimental: (§10) Exemplary compounds were tested for ability to bind to bromodomain-containing protein 4 (BRD4).
(§11) Compounds were tested using a developed AlphaLISA competition assay. Briefly, His-tagged BRD4 BD1 (46-168) and biotinylated histone H4K5/8/12/16(Ac) peptide (ANASPEC, AS-64989-1) were incubated in 20 mM HEPES pH 7.5, 100 mM NaCl, 0.5 mM TCEP, 0.1% BSA, 0.02% CHAPS at a final concentration of 10 nM. Test compounds were serially diluted ten times in the same buffer and were added to the BRD4-peptide mixture for 1 h incubation at room temperature. Following incubation, Streptavidin AlphaLISA acceptor beads (PerkinElmer, AL125M) were added to BRD4-peptide-compound samples to a final concentration of 0.01 mg/mL for a 0.5 h incubation at room temperature in the dark. Following incubation, the same amount of Nickel Chelate Alpha donor beads (PerkinElmer, AS101M) were added to the samples for a final 1 h incubation. The AlphaLISA signals were measured using an EnVision plate reader (PerkinElmer). The data were uploaded to Screening Ultra (Dotmatics) to determine the half-maximal inhibitory concentration (IC50) for each test compound.

[4] = molecular target: T2, His-tagged BRD4 BD2 (333-460) (Homo sapiens, UniProt O60885); test: AlphaLISA competition assay, BRD4 BD2; assay type: binding; settings: BRD4-BD2, AlphaLISA competition with biotinylated histone H4K5/8/12/16(Ac) peptide, 20 nM
T2 construct: The same assay was developed for His-tagged BRD4 BD2 (333-460) and biotinylated histone H4K5/8/12/16(Ac) peptide
Experimental: as §10, §11
The same assay was developed for His-tagged BRD4 BD2 (333-460) and biotinylated histone H4K5/8/12/16(Ac) peptide at a final concentration of 20 nM.

[5] = molecular target: T3, biotinylated BCL6 (5-129) (Homo sapiens, UniProt P41182); test: SPR assay for binding affinity to BCL6; settings: Biacore 8K, 25° C., immobilized biotinylated BCL6 (5-129)
T3 construct: biotinylated BCL6 (5-129) was diluted in 10 mM HEPES pH 7.4; biotin (biotinylated)
Experimental: Exemplary compounds were tested for ability to bind to B-cell lymphoma 6 (BCL6) protein.
Binding studies by surface plasmon resonance (SPR) were performed using a Biacore 8K (Cytiva) instrument at 25° C. Briefly, biotinylated BCL6 (5-129) was diluted in 10 mM HEPES pH 7.4, 150 mM NaCl, 0.05% Surfactant P20, 0.5 mM TCEP, 3% DMSO to 1-5 μg/mL and was immobilized on an SA sensor chip (Cytiva, BR100032), resulting in surface densities at 1000-3000 resonance units (RUs). Test compounds were serially diluted five times in the same buffer and were injected to the immobilized surface. Kinetic determination experiments were performed using single-cycle kinetics with 110-120 s contact time, 1000-4000 s dissociation time, 30 μL/min flow rate. Binding data were analyzed by using Biacore insight evaluation software to determine KD values for test compounds.

[6] = tested on: T-Rex 293 cell line SC cells having increased expression of BCL6 protein; test: Cellular growth inhibition assay, T-Rex 293 SC cells with doxycycline (CellTiter-Glo); assay type: cell-based; settings: T-Rex 293 SC cells with 10 ng/mL doxycycline (increased BCL6 expression), 72 hours, CellTiter-Glo 2.0
Experimental: as §6, §7, §8, §9, §3, §4, §5

[7] = tested on: Farage cell line; test: Cellular growth inhibition assay, Farage cells (CellTiter-Glo); assay type: cell-based; settings: Farage cell line (DLBCL), 72 hours, CellTiter-Glo 2.0
Experimental: as §1, §2, §3, §4, §5

Row | GI50 [1] [nM] | IC50 [3] [nM] | IC50 [4] [nM] | Kd [5] [nM] | Structure (SMILES) | GI50 [2] [nM] | GI50 [6] [nM] | GI50 [7] [nM]
1 | < 500 |  |  |  | CCS(=O)(=O)Nc1ccc(Oc2cccc(OCCOCCOC3CCN(c4ncc(Cl)c(Nc5ccc6c(c5)cc(OCC(=O)NC)c(=O)n6C)n4)CC3)c2)c(-c2cn(C)c(=O)c3[nH]ccc23)c1 [Compound I-1, 2-[[6-[[5-chloro-2-[4-[2-[2-[3-[4-(ethylsulfonylamino)-2-(6-methyl-7-oxo-1H-pyrrolo[2,3-c]pyridin-4-yl)phenoxy]phenoxy]ethoxy]ethoxy]-1-piperidyl]pyrimidin-4-yl]amino]-1-methyl-2-oxo-3-quinolyl]oxy]-N-methyl-acetamide] |  |  | 
2 | < 500 | 50 to 500 | 5 to 50 | > 100 | CCS(=O)(=O)Nc1ccc(Oc2cccc(OCCN3CCN(CC4CCN(c5ncc(Cl)c(Nc6ccc7c(c6)cc(OCC(=O)NC)c(=O)n7C)n5)CC4)CC3)c2)c(-c2cn(C)c(=O)c3[nH]ccc23)c1 [Compound I-4] | < 500 | < 500 | 
3 |  | < 5 | < 5 | > 100 | CNC(=O)COc1cc2cc(Nc3nc(N4CCC(CN5CCN(Cc6ccc(Oc7ccc(C(C)(C)O)cc7-c7cn(C)c(=O)c8[nH]ccc78)cc6)CC5)CC4)ncc3Cl)ccc2n(C)c1=O [Compound I-38] | < 500 | < 500 | < 500
4 |  | 5 to 50 | < 5 | 10 to 100 | CNC(=O)COc1cc2cc(Nc3nc(N4CCC(CN5CCN(Cc6cccc(Oc7ccc(C(C)(C)O)cc7-c7cn(C)c(=O)c8[nH]ccc78)c6)CC5)CC4)ncc3Cl)ccc2n(C)c1=O [Compound I-39] | < 500 | < 500 | < 500
5 |  | < 5 | < 5 | 10 to 100 | CNC(=O)COc1cc2cc(Nc3nc(N4CCC(N5CCN(Cc6cccc(Oc7ccc(C(C)(C)O)cc7-c7cn(C)c(=O)c8[nH]ccc78)c6)CC5)CC4)ncc3Cl)ccc2n(C)c1=O [Compound I-40] | < 500 | < 500 | < 500
6 |  | < 5 | > 500 | 1 to 10 | CNC(=O)COc1cc2cc(Nc3nc(N4CCCC5(CN(C[C@H]6C[C@H](Oc7ccc(C(C)(C)O)cc7-c7cn(C)c(=O)c8[nH]ccc78)C6)C5)C4)ncc3Cl)ccc2n(C)c1=O [Compound I-41] | > 3000 | < 500 | 1500 to 3000
7 |  | < 5 | > 500 | < 1 | CNC(=O)COc1cc2cc(Nc3nc(N4CCCC5(CN(C[C@H]6C[C@@H](Oc7ccc(C(C)(C)O)cc7-c7cn(C)c(=O)c8[nH]ccc78)C6)C5)C4)ncc3Cl)ccc2n(C)c1=O [Compound I-42] | > 3000 | < 500 | 1500 to 3000
8 |  | < 5 | < 5 | 1 to 10 | CNC(=O)COc1cc2cc(Nc3nc(N4CCC(CN5CCCC6(C5)CN(C[C@H]5C[C@@H](Oc7ccc(C(C)(C)O)cc7-c7cn(C)c(=O)c8[nH]ccc78)C5)C6)CC4)ncc3Cl)ccc2n(C)c1=O [Compound I-44] | 500 to 1500 | < 500 | < 500
9 |  | < 5 | < 5 | 1 to 10 | CNC(=O)COc1cc2cc(Nc3nc(N4CCC(CN5CCN(CC[C@H]6C[C@@H](Oc7ccc(C(C)(C)O)cc7-c7cn(C)c(=O)c8[nH]ccc78)C6)CC5)CC4)ncc3Cl)ccc2n(C)c1=O [Compound I-46] | < 500 | < 500 | < 500
10 |  | < 5 | < 5 | 1 to 10 | CNC(=O)COc1cc2cc(Nc3nc(N4CCN(CCN5CCN(Cc6cccc(Oc7ccc(C(C)(C)O)cc7-c7cn(C)c(=O)c8[nH]ccc78)c6)CC5)CC4)ncc3Cl)ccc2n(C)c1=O [Compound I-47] | < 500 | < 500 | < 500
11 |  | < 5 | < 5 | 10 to 100 | CNC(=O)COc1cc2cc(Nc3nc(N4CCC(N5CCN(Cc6ccc(Oc7ccc(C(C)(C)O)cc7-c7cn(C)c(=O)c8[nH]ccc78)cc6)CC5)CC4)ncc3Cl)ccc2n(C)c1=O [Compound I-48] | < 500 | < 500 | < 500
